Source: US9352015B2, “Antimicrobial peptides” (priority 2009, dated 2016)
In brackets after ≈: the same amount, converted by molar mass. Several values for one entry are separate records, joined by “and”; a condition that tells them apart may be missing. Identical values can stand only once. Like-named read-outs stand apart in the source and are kept apart here.

Tests used:
Acinetobacter baumannii = format: cell-based
Method: (§1) Minimal inhibitory concentrations (MICs) are determined using a standard microtiter dilution method, with 3 sets of determinations, in LB (Luria-Bertani) no-salt medium (10 g of tryptone and 5 g of yeast extract per liter). In some cases, Mueller Hinton (MH) medium or Brain Heart Infusion (BHI) medium is used.
(§2) Briefly, cells were grown overnight at 37° C. in LB and diluted in the same medium. Serial dilutions of the peptides are added to the microtiter plates in a volume of 100 μl followed by 10 μl of bacteria to give a final inoculum of 5×10^5 colony-forming units/ml. Plates are incubated at 37° C. for 24 hours and MICs determined as the lowest peptide concentration that inhibited growth. Alternatively, minimal inhibitory concentrations are determined using a standard microtiter dilution method in a Mueller-Hinton (MH) medium. Briefly, cells are grown overnight at 37° C. in MH broth and diluted in the same medium. In some cases, serial dilutions of the peptides are added to the microtiter plates in a volume of 100 μl followed by 10 μl of bacteria to give a final inoculum of 1×10^5 colony-forming units/ml. Plates are incubated at 37° C. for 24 hours and MICs are determined as the lowest peptide concentration that inhibited growth.
The biological activities of these six peptide analogs was determined against 11 clinical isolated of Acinetobacter baumannii (Table 9). Please note that the activities are reported in micromolar rather than microgram/ml. This allows a direct comparison on a molar basis with the effectiveness of molecules of different molecular weights whether peptides disclosed herein or antibiotics which in general are smaller in molecular mass. […] These are the highest antimicrobial activities observed in studies of antimicrobial peptides derived by modifying the peptide sequence of SEQ ID NO:24 (D1). D22 has the best hemolytic activity of the six analogs (D17-D22) and a therapeutic index of […] compared to […] for D1 (Table 9). D22 has no apparent advantage over D1 as determined in these experiments.

[1] = test system: Methicillin Resistant Staphylococcus aureus (MRSA) and Staphylococcus aureus; format: cell-based
Method: as §1, §2
Identification of Antimicrobial Peptides for Gram-positive Bacteria. In a manner similar to testing against gram-negative bacteria, experiments were carried out to screen the 14 peptides used to identify antimicrobial peptides with significant activity against A. baumanii shown above against 20 different clinical isolates of Methicillin Resistant Staphylococcus aureus (MRSA) and Staphylococcus aureus.

[2] = RP-HPLC temperature profiling (peptide self-association parameter PA); format: physicochemical; conditions: RP-HPLC temperature profiling 5-80° C., pH 2, relative to control peptide C
Method: Temperature profiling analyses were performed on the same column in 3° C. increments, from 5° C. to 80° C., using a linear AB gradient of 0.5% acetonitrile/min, as described previously (30, 53, 92, 93).
Peptide self-association (i.e., the ability to oligomerize/dimerize) in aqueous solution is a very important parameter for antimicrobial activity (53, 92, 93). Without wishing to be bound by any particular theory, the present inventors postulated that monomeric random-coil antimicrobial peptides are best suited to pass through the capsule and cell wall of microorganisms prior to penetration into the cytoplasmic membrane, induction of α-helical structure and disruption of membrane structure to kill target cells (93). Thus, if the self-association ability of a peptide in aqueous media is too strong (e.g., forming stable folded dimers through interaction of their non-polar faces) this could decrease the ability of the peptide to dissociate to monomer, in addition oligomerization of the peptide can prevent it from effectively passing through the capsule and cell wall to reach the membrane. The ability of the peptides in the present study to self-associate was determined by the technique of RP-HPLC temperature profiling at pH 2 (29, 30, 38). The reason pH 2 is used to determine self-association of cationic AMPs is that highly positively charged peptides are frequently not eluted from reversed-phase columns at pH 7 due to non-specific binding to negatively charged silanols on the column matrix. This is not a problem at pH 2 since the silanols are protonated (i.e., neutral) and non-specific electrostatic interactions are eliminated. At pH 2, the interactions between the peptide and the reversed-phase matrix involve ideal retention behavior, i.e., only hydrophobic interactions between the preferred binding domain (nonpolar face) of the amphipathic molecule and the hydrophobic surface of the column matrix are present (39). […] Control peptide C is a monomeric random coil peptide in both aqueous and hydrophobic media; thus, its linear decrease in peptide retention behavior with increasing temperature within the range of 5° C. to 80° C. represents only the general effects of temperature due to greater solute diffusivity and enhanced mass transfer between the stationary and mobile phase at higher temperatures (55). To allow for these general temperature effects, the data for the control peptide was subtracted from each temperature profile as shown in FIG. 2B. Thus, the peptide self-association parameter, PA, represents the maximum change in peptide retention time relative to the random coil peptide C. Note that the higher the PA value, the greater the self-association.

Pseudomonas aeruginosa = conditions: for MIC PAO 1: 37° C., 24 h, strain PAO1; for MIC GM (geometric mean of the MIC values): six P. aeruginosa strains; for MIC CP 204: strain CP204; for MIC M 2: strain M2; for MIC PA 14: strain PA14; for MIC PAK: strain PAK; for MIC WR 5: strain WR5
[3] = Hemolytic activity against human erythrocytes (HC50 / MHC, microtiter dilution); format: cell-based; conditions: human, 1% human erythrocytes, pH 7.4
Method: Hemoglobin release was determined spectrophotometrically at 570 nm. The hemolytic activity was determined as the peptide concentration that caused 50% hemolysis of erythrocytes after 18 h (HC50). […] HC50 was determined by a plot of peptide concentration versus percent lysis.

[4] = RP-HPLC retention as measure of overall peptide hydrophobicity; format: physicochemical; conditions: pH 2, room temperature
Method: Crude and purified peptides were analyzed on an Agilent 1100 series liquid chromatograph (Little Falls, Del.). Runs were performed on a Zorbax 300 SB-C8 column (150×2.1 mm I.D.; 5 μm particle size, 300 Å pore size) from Agilent Technologies using linear AB gradient (1% acetonitrile/min) and a flow rate of 0.25 ml/min, where eluant A was 0.2% aqueous TFA, pH 2 and eluant B was 0.2% TFA in acetonitrile.

| MIC GM (geometric mean) (Acinetobacter baumannii) [µM] | MIC GM (geometric mean) [1] [µM] | PA (dimerization / self-association parameter) [2] | MIC PAO 1 (Pseudomonas aeruginosa; Brain Heart Infusion medium) [µg/mL] | MIC GM (geometric mean of the MIC values) (Pseudomonas aeruginosa; Brain Heart Infusion medium) [µg/mL] | MIC CP 204 (Pseudomonas aeruginosa; Brain Heart Infusion medium) [µg/mL] | MIC M 2 (Pseudomonas aeruginosa; Brain Heart Infusion medium) [µg/mL] | MIC PA 14 (Pseudomonas aeruginosa; Brain Heart Infusion medium) [µg/mL] | MIC PAK (Pseudomonas aeruginosa; Brain Heart Infusion medium) [µg/mL] | MIC WR 5 (Pseudomonas aeruginosa; Brain Heart Infusion medium) [µg/mL] | MIC PAO 1 (Pseudomonas aeruginosa; Mueller Hinton medium) [µg/mL] | MIC GM (geometric mean of the MIC values) (Pseudomonas aeruginosa; Mueller Hinton medium) [µg/mL] | MIC CP 204 (Pseudomonas aeruginosa; Mueller Hinton medium) [µg/mL] | MIC M 2 (Pseudomonas aeruginosa; Mueller Hinton medium) [µg/mL] | MIC PA 14 (Pseudomonas aeruginosa; Mueller Hinton medium) [µg/mL] | MIC PAK (Pseudomonas aeruginosa; Mueller Hinton medium) [µg/mL] | MIC WR 5 (Pseudomonas aeruginosa; Mueller Hinton medium) [µg/mL] | Hydrophobicity (retention time in RP-HPLC) [4] [min] | SMILES | HC50 at 18 h [3] |
| --- | --- | --- | --- | --- | --- | --- | --- | --- | --- | --- | --- | --- | --- | --- | --- | --- | --- | --- | --- |
| 1.1 (≈ 3.33 µg/mL) | 7.3 (≈ 22.1 µg/mL) | 6.00 | 15.6 (≈ 5.16 µM) | 6.2 | 15.6 (≈ 5.16 µM) | 3.9 (≈ 1.29 µM) | 3.9 (≈ 1.29 µM) | 3.9 (≈ 1.29 µM) | 3.9 (≈ 1.29 µM) | 7.8 (≈ 2.58 µM) | 6.2 | 15.6 (≈ 5.16 µM) | 15.6 (≈ 5.16 µM) | 0.5 (≈ 0.165 µM) | 3.9 (≈ 1.29 µM) | 15.6 (≈ 5.16 µM) | 93.77 | CC[C@@H](C)[C@@H](NC(=O)[C@@H](C)NC(=O)[C@@H](CCCCN)NC(=O)[C@@H](CC(C)C)NC(=O)[C@@H](CC(C)C)NC(=O)[C@H](NC(=O)[C@@H](CCCCN)NC(=O)[C@@H](CC(C)C)NC(=O)[C@@H](C)NC(=O)[C@@H](CCCCN)NC(=O)[C@@H](CCCCN)NC(=O)[C@@H](CCCCN)NC(=O)[C@@H](C)NC(=O)[C@@H](CCCCN)NC(=O)[C@@H](CO)NC(=O)[C@@H](Cc1ccccc1)NC(=O)[C@H](NC(=O)[C@@H](CCCCN)NC(=O)[C@@H](CC(C)C)NC(=O)[C@@H](Cc1ccccc1)NC(=O)[C@@H](CO)NC(=O)[C@@H](CCCCN)NC(=O)[C@@H](Cc1c[nH]c2ccccc12)NC(=O)[C@@H](CO)NC(C)=O)[C@H](C)O)[C@H](C)O)C(=O)N[C@H](CO)C(=O)N[C@H](CCCCN)C(N)=O [Peptide D21, Ac-SWKSFLKTFSKAKKKALKTLLKAISK-amide] | 88.5 µg/mL and 29.3 µM |
| 0.6 (≈ 1.79 µg/mL) | 6.0 (≈ 17.9 µg/mL) | 6.39 | 7.8 (≈ 2.62 µM) | 9.8 | 15.6 (≈ 5.23 µM) | 7.8 (≈ 2.62 µM) | 7.8 (≈ 2.62 µM) | 15.6 (≈ 5.23 µM) | 7.8 (≈ 2.62 µM) | 7.8 (≈ 2.62 µM) | 12.4 | 31.3 (≈ 10.5 µM) | 15.6 (≈ 5.23 µM) | 7.8 (≈ 2.62 µM) | 7.8 (≈ 2.62 µM) | 15.6 (≈ 5.23 µM) | 95.90 | CC[C@@H](C)[C@@H](NC(=O)[C@@H](C)NC(=O)[C@@H](CCCCN)NC(=O)[C@@H](CC(C)C)NC(=O)[C@@H](CC(C)C)NC(=O)[C@H](NC(=O)[C@@H](CCCCN)NC(=O)[C@@H](CC(C)C)NC(=O)[C@@H](C)NC(=O)[C@@H](CCCCN)NC(=O)[C@@H](CCCCN)NC(=O)[C@@H](CCCCN)NC(=O)[C@@H](C)NC(=O)[C@@H](CCCCN)NC(=O)[C@@H](CO)NC(=O)[C@@H](Cc1ccccc1)NC(=O)[C@H](NC(=O)[C@@H](CCCCN)NC(=O)[C@@H](CC(C)C)NC(=O)[C@@H](Cc1ccccc1)NC(=O)[C@@H](CO)NC(=O)[C@@H](CCCCN)NC(=O)[C@@H](Cc1c[nH]c2ccccc12)NC(=O)[C@@H](CO)NC(C)=O)[C@H](C)O)[C@H](C)O)C(=O)N[C@H](CO)C(=O)N[C@H](CO)C(N)=O [Peptide D20, Ac-SWKSFLKTFSKAKKKALKTLLKAISS-amide] | 77 µg/mL and 25.8 µM |
| 0.9 (≈ 2.61 µg/mL) | 17.1 (≈ 49.6 µg/mL) | 7.21 | 10.4 (≈ 3.59 µM) | 14.7 | 41.7 (≈ 14.4 µM) | 10.4 (≈ 3.59 µM) | 10.4 (≈ 3.59 µM) | 10.4 (≈ 3.59 µM) | 20.8 (≈ 7.17 µM) | 7.8 (≈ 2.69 µM) | 9.8 | 15.6 (≈ 5.38 µM) | 7.8 (≈ 2.69 µM) | 7.8 (≈ 2.69 µM) | 7.8 (≈ 2.69 µM) | 15.6 (≈ 5.38 µM) | 97.87 | CC[C@@H](C)[C@@H](NC(=O)[C@@H](C)NC(=O)[C@@H](CO)NC(=O)[C@@H](CC(C)C)NC(=O)[C@@H](CC(C)C)NC(=O)[C@H](NC(=O)[C@@H](CCCCN)NC(=O)[C@@H](CC(C)C)NC(=O)[C@@H](C)NC(=O)[C@@H](CCCCN)NC(=O)[C@@H](CCCCN)NC(=O)[C@@H](CCCCN)NC(=O)[C@@H](C)NC(=O)[C@@H](CCCCN)NC(=O)[C@@H](CO)NC(=O)[C@@H](Cc1ccccc1)NC(=O)[C@H](NC(=O)[C@@H](CCCCN)NC(=O)[C@@H](CC(C)C)NC(=O)[C@@H](Cc1ccccc1)NC(=O)[C@@H](CO)NC(=O)[C@@H](CO)NC(=O)[C@@H](Cc1c[nH]c2ccccc12)NC(=O)[C@@H](CO)NC(C)=O)[C@H](C)O)[C@H](C)O)C(=O)N[C@H](CO)C(=O)N[C@H](CO)C(N)=O [Peptide D18, Ac-SWSSFLKTFSKAKKKALKTLLSAISS-amide] | 55 µg/mL and 19 µM |
